Consider eight compounds from patent publication US12435057B2, “Triazole carboxylic acids as LPA antagonists” (BRISTOL-MYERS SQUIBB COMPANY, priority 2019, dated 2025).

The IC50 is the concentration at which inhibition is half-maximal.

In assay [1] the test system is human foetal lung fibroblasts. The note with it: cited from earlier work.
For a further assay, the system named is UUO mice. Conditions: UUO mice treated with antagonist, compared with LPA1 (-/-) mice; cited from earlier work.
In assay [2] the test system is mouse epithelial renal cell line, MCT. Conditions: co-treatment with LPA, MCT cells; cited from earlier work.
For assay [3], the system named is pancreatic cancer cell lines. The note with it: cited from earlier work.
Another assay deals with nerve-injured mice. Conditions: pretreatment; cited from earlier work.
In a further assay the test system is IPF patients. Conditions: 26-week clinical trial in IPF patients; cited from earlier work.
For a further assay, the target named is T1, human LPA1 (Homo sapiens, UniProt Q92633).
T1 construct: expressed in transfected cells; host or cells: Chinese hamster ovary (CHO) cells
Briefly: LPA1 functional antagonist assay (calcium flux). Type of assay: cell-based. The note with it: CHO cells overexpressing human LPA1; inhibition of calcium flux induced by 10 nM LPA; read-out: hLPA1 IC50. The procedure: The effectiveness of compounds of the present invention as LPA1 inhibitors can be determined in an LPA1 functional antagonist assay as follows: • Chinese hamster ovary cells overexpressing human LPA1 were plated overnight (15,000 cells/well) in poly-D-lysine coated 384-well microplates (Greiner bio-one, Cat #781946) in DMEM/F12 medium (Gibco, Cat #11039). Following overnight culture, cells were loaded with calcium indicator dye (AAT Bioquest Inc, Cat #34601) for 30 minutes at 37° C. The cells were then equilibrated to room temperature for 30 minutes before the assay. Test compounds solubilized in DMSO were transferred to 384 well non-binding surface plates (Corning, Cat #3575) using the Labcyte Echo acoustic dispense and diluted with assay buffer [[…] with calcium/magnesium (Gibco Cat #14025-092), 20 mM HEPES (Gibco Cat #15630-080) and 0.1% fatty acid free BSA (Sigma Cat #A9205)] to a final concentration of 0.5% DMSO. Diluted compounds were added to the cells by FDSS6000 (Hamamatsu) at final concentrations ranging from 0.08 nM to 5 μM. and were then incubated for 20 min at room temperature at which time LPA (Avanti Polar Lipids Cat #857130C) was added at final concentrations of 10 nM to stimulate the cells. The compound IC50 value was defined as the concentration of test compound which inhibited 50% of the calcium flux induced by LPA alone. IC50 values were determined by fitting data to a 4-parameter logistic equation (GraphPad Prism, San Diego CA). b. In Vivo Assays LPA Challenge with Plasma Histamine Evaluation.

T1 sequence (Q92633 whole entry): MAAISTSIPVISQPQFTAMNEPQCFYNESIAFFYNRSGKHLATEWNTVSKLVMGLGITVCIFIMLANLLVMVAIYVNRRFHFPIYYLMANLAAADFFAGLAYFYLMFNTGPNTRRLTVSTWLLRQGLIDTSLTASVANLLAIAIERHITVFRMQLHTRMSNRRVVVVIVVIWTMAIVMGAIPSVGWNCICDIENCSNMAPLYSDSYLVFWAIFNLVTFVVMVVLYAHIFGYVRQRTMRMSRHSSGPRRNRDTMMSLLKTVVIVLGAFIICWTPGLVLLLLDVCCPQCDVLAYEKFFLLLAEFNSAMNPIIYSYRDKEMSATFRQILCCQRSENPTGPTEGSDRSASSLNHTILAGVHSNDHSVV

Regarding `Cc1noc(-c2ccc(CSCCC(=O)O)cc2)c1NC(=O)OC(C)c1ccccc1Cl` (stereo not drawn) [Ki16425], the “chemotaxis of human foetal lung fibroblasts induced by BAL from IPF patients” value in assay [1] is recorded as “blocked”. Further, in the assay with UUO mice, the “development of renal fibrosis” value is “closely resembled the profile of LPA1 (−/−) mice”. In addition, the “LPA-induced expression of CTGF” value in assay [2] is recorded as “almost completely suppressed”. In addition, in assay [3] (highly peritoneal metastatic pancreatic cancer cell line), the “LPA-induced and ascites-induced invasion activity” value is on record as “blocked”. The “in vitro migration in response to LPA and ascites from pancreatic cancer patients” value in assay [3] (pancreatic cancer cell lines) is recorded as “effectively blocked”.

For the compound `C[C@@H](N)[C@H]1CC[C@H](C(=O)Nc2ccncc2)CC1` [Example Y-27632], in the assay on nerve-injured mice, the allodynia and hyperalgesia entry is “completely abolished”.

Turning to `Cc1noc(-c2ccc(-c3ccc(C4(C(=O)O)CC4)cc3)cc2)c1NC(=O)O[C@H](C)c1ccccc1` [BMS-986020], the “rate of FVC (forced vital capacity) decline” value in the assay on IPF patients was “significantly reduce”.

Consider `Cc1nc(-c2nnn(C)c2COC(=O)N(C)CC2CCC2)ccc1O[C@H]1CC[C@@H]2[C@@H](C(=O)O)[C@@H]21` (single isomer, unassigned) [Example 46], for which the IC50 on human LPA1 turned out to be 2010 nM.

For `Cc1nc(-c2nnn(C)c2COC(=O)N(C)CC2CCC2)ccc1O[C@@H]1C[C@H]2C[C@H]2[C@H](C(=O)O)C1` (racemic) [Example 1, (±)-(1R,2R,4R,6R)-4-((6-(5-((((cyclobutylmethyl)(methyl)carbamoyl)oxy)methyl)-1-methyl-1H-1,2,3-triazol-4-yl)-2-methylpyridin-3-yl)oxy)bicyclo[4.1.0]heptane-2-carboxylic Acid], the IC50 at human LPA1 is 27 nM.

For the compound `Cc1nc(-c2nnn(C)c2COC(=O)NCc2ccccc2)ccc1O[C@@H]1CC[C@H]2C(C(=O)O)[C@@H]12` (stereo partly drawn) [Example 63], the 50% inhibitory concentration (IC50) at human LPA1 was determined as 264 nM.

As for `CCCCN(C)C(=O)OCc1c(-c2ccc(O[C@H]3CCO[C@@H](C(=O)O)C3)c(C)n2)nnn1C` [Example 35], the IC50 at human LPA1 came to 644 nM.

Regarding `Cc1nc(-c2nnn(C)c2COC(=O)N(C)CC2CCC2)ccc1O[C@@H]1C[C@H](C(=O)O)C[C@@H]2C[C@@H]21` [Example 73], the IC50 at human LPA1 worked out at 60 nM.
